From paper PMC7352759, “S(+)-(2E)-N-(2-Hydroxypropyl)-3-Phenylprop-2-Enamide (KM-568): A Novel Cinnamamide Derivative with Anticonvulsant Activity in Animal Models of Seizures and Epilepsy” (International Journal of Molecular Sciences, 2020)
Read-outs that look alike come from different tables or passages of the source.

Experiments:
rats [1] = experiment: Maximal electroshock test (MES), rats; assay type: in vivo; settings: for ED50: Rattus norvegicus, 95% confidence interval in parentheses
Experimental: In vivo activity testing was performed at the Epilepsy Branch, National Institute of Neurological Disorders and Stroke, National Institutes of Health (NIH, Bethesda, USA) within the Anticonvulsant Screening Program (ASP) (currently known as the Epilepsy Therapy Screening Program (ETSP)). Pharmacological evaluation was planned and performed in accordance with the Institute of Laboratory Resources polices on the humane care of laboratory animals and approved by the University of Utah’s Institutional Animal Care and Use Committee (IACUC). All testing protocols were previously published as well as they are available on the NIH website. In the tests, albino mice Carworth Farms No.1 (CF-1) (Charles River), C57/Bl6 mice (Charles River), Frings mice (University of Utah) or male rats Sprague–Dawley (Charles River) were used. All animals were housed, fed, and handled in a manner consistent with the recommendations in the National Council Publication, ‘Guide for the Care and Use of Laboratory animals’ [51]. The tested compound was suspended in 0.5% methylcellulose.
After intraperitoneal or oral administration of compound KM-568 at certain dose, an alternating current at 60 Hz and 50 mA (mice) or 150 mA (rats) was delivered for 0.2 sec via corneal electrodes to induce seizures. Prior to each stimulation, a drop of 0.5% tetracaine hydrochloride in saline was applied to cornea. Protection was defined as the abolition of the hindlimb tonic extension of the seizures.

mice = experiment: 6-Hz psychomotor seizure model (32 mA, 44 mA); assay type: in vivo; settings: for ED50: Mus musculus, ip, 95% confidence interval in parentheses; for 6-Hz (32 mA) Results (protected/tested animals) / 6-Hz (44 mA) Results (protected/tested animals): i.p.
Experimental: The test was performed after 0.25 h (for 32 mA current) or 0.5 h (for 44 mA current) of i.p. administration of compound KM-568. The groups of 8 animals were challenged for a single dose of the tested compounds. In addition, 0.2 ms pulses of electric current at 6 Hz and 32 mA or 44 mA were delivered for 3 sec via corneal electrodes. The mouse was released into an observation cage immediately after stimulation. The electric stimulation in a 6-Hz test causes a minimal clonic phase followed by stereotyped, automatic behaviors. The seizure activity can be described as stun, forelimb clonus, twitching of the vibrissae, and Straub tail. The protection was scored if the mouse resumed its normal activity within 10 sec from the stimulation.

rats [2] = experiment: Pilocarpine-induced status epilepticus model; assay type: in vivo
Experimental: Compound KM-568 was tested in rats at the doses in the range 200–400 mg/kg i.p. in a pilocarpine-induced status epilepticus model. After administration of pilocarpine, at the time point when a convulsive effect of at least level 3 in the Racine scale was noted (time 0 h) and 0.5 h afterwards (time 0.5 h), KM-568 was administered intraperitoneally at a certain dose.
Pilocarpine was administered intraperitoneally into rats at the dose of 50 mg/kg. Each animal was being observed. The time point when the convulsive effect at the level of at least 3 in the Racine scale was noted (time 0 h), and, 0.5 h (time 0.5 h) afterwards, KM-568 was administered.

[3] = Ames microplate format (MPF) assay, TA100; settings: Salmonella typhimurium
Text: (§1) The Ames microplate format (MPF) mutagenicity assay (Xenometrix, Allschwil, Switzerland) was used to test KM-568 mutagenicity. Growth, exposure, and indicator media, positive control chemicals, and four Salmonella typhimurium strains TA98, TA100, TA1535 and TA1537 were included in the kit. TA100 and TA1535 strains detect base substitution mutations, whereas TA98 and TA1537 indicate frameshift mutations. The strains of bacteria included in a kit are in compliance with the Organization for Economic Cooperation and Development (OECD) 471 Guideline for Testing of Chemicals.
(§2) The assay is a liquid microplate modification of the traditional Salmonella test. During the procedure, bacteria are exposed to different concentrations of a test compound for 90 min in a medium containing sufficient histidine to support cell divisions. Then, the cultures are diluted in a pH indicator medium lacking histidine and aliquoted into 48 wells of a 384-well plate. Within 2 days, bacteria that have undergone reversion to amino acid prototrophy will form colonies. Products of bacteria metabolism reduce pH of the medium, changing the color of wells from purple to yellow.
The test procedure provided by Xenometrix and described in detail elsewhere was followed. Bacterial strains were grown overnight (14–16 h) in exposure medium in a shaker incubator and then exposed to KM-568 in 24-well plates for 90 min at 37 °C with agitation. Final KM-568 concentrations in the assay were 0.1, 0.2, and 0.5 mM. After preincubation, the cultures were diluted in the indicator medium and the contents of each 24-well culture were transferred to 48 wells on a 384-well plate and incubated further for 48 h at 37 °C without agitation. After the exposure, the number of wells containing bacteria was scored for yellow wells. […]
(§3) The fold increase of revertants relative to the solvent control was determined by dividing the mean number of positive wells at each dose by the solvent control at baseline. The solvent control at baseline was calculated as the mean number of positive wells in the solvent control plus one standard deviation (SD). […]

[4] = Ames microplate format (MPF) assay, TA1535; settings: Salmonella typhimurium, Salmonella typhimurium TA1535
Text: as §1, §2
(§4) The test procedure provided by Xenometrix and described in detail elsewhere was followed. Bacterial strains were grown overnight (14–16 h) in exposure medium in a shaker incubator and then exposed to KM-568 in 24-well plates for 90 min at 37 °C with agitation. Final KM-568 concentrations in the assay were 0.1, 0.2, and 0.5 mM. After preincubation, the cultures were diluted in the indicator medium and the contents of each 24-well culture were transferred to 48 wells on a 384-well plate and incubated further for 48 h at 37 °C without agitation. After the exposure, the number of wells containing bacteria was scored for yellow wells. […] Pure DMSO was used as a negative control. All doses were performed in triplicate.
(§5) The fold increase of revertants relative to the solvent control was determined by dividing the mean number of positive wells at each dose by the solvent control at baseline. The solvent control at baseline was calculated as the mean number of positive wells in the solvent control plus one standard deviation (SD). When an increase of more than twofold relative to the baseline at more than one dose with a dose–response was observed, the sample was classified as positive, whereas when no response > 2 times the baseline and no dose–response was stated, the sample was classified as negative.

[5] = Ames microplate format (MPF) assay, TA1537; settings: Salmonella typhimurium
Text: as §1, §2, §4, §5

[6] = test system: Salmonella typhimurium strains TA98, TA100, TA1535 and TA1537; experiment: Ames microplate format (MPF) assay, overall verdict; settings: 0.1, 0.2, 0.5 mM; four strains
Text: as §1
The assay is a liquid microplate modification of the traditional Salmonella test. During the procedure, bacteria are exposed to different concentrations of a test compound for 90 min in a medium containing sufficient histidine to support cell divisions. […]
The test procedure provided by Xenometrix and described in detail elsewhere was followed. […] After the exposure, the number of wells containing bacteria was scored for yellow wells. […]
as §3

## C[C@H](O)CNC(=O)/C=C/c1ccccc1 [KM-568, S(+)-(2E)-N-(2-hydroxypropyl)-3-phenylprop-2-enamide]
Rats [1]; ip, 0.25 h
  ED50: 27.6 mg/kg
Rats [1]; po, 1.0 h
  ED50: 30.8 mg/kg
Rats [1]; i.p., 15 mg/kg, 0.25 h
  MES Results (protected/tested animals): 1/8
Rats [1]; i.p., 22 mg/kg, 0.25 h
  MES Results (protected/tested animals): 3/8
Rats [1]; i.p., 30 mg/kg, 0.25 h
  MES Results (protected/tested animals): 5/8
Rats [1]; i.p., 60 mg/kg, 0.25 h
  MES Results (protected/tested animals): 7/8
Rats [1]; p.o., 20.0 mg/kg, 1.0 h
  MES Results (protected/tested animals): 1/8
Rats [1]; p.o., 30.0 mg/kg, 1.0 h
  MES Results (protected/tested animals): 3/8
Rats [1]; p.o., 35.0 mg/kg, 1.0 h
  MES Results (protected/tested animals): 5/8
Rats [1]; p.o., 40.0 mg/kg, 1.0 h
  MES Results (protected/tested animals): 7/8
mice; 32 mA, 0.25 h, read-out: 6-Hz (32 mA) ED50
  ED50: 71.5 mg/kg
mice; 44 mA, 0.5 h, read-out: 6-Hz (44 mA) ED50
  ED50: 114 mg/kg
mice; 50 mg/kg, 0.25 h
  6-Hz (32 mA) Results (protected/tested animals): 1/8
mice; 50 mg/kg, 0.5 h
  6-Hz (44 mA) Results (protected/tested animals): 0/8
mice; 75 mg/kg, 0.25 h
  6-Hz (32 mA) Results (protected/tested animals): 3/8
mice; 87 mg/kg, 0.25 h
  6-Hz (32 mA) Results (protected/tested animals): 7/8
mice; 100 mg/kg, 0.5 h
  6-Hz (44 mA) Results (protected/tested animals): 3/8
mice; 110 mg/kg, 0.25 h
  6-Hz (32 mA) Results (protected/tested animals): 8/8
mice; 150 mg/kg, 0.5 h
  6-Hz (44 mA) Results (protected/tested animals): 6/8
mice; 200 mg/kg, 0.5 h
  6-Hz (44 mA) Results (protected/tested animals): 8/8
Rats [2]; Rattus norvegicus, ip, 0.5 h, given at time 0.5 h
  ED50: 297 mg/kg
Rats [2]; i.p., 200 mg/kg, given at time 0 h
  Results (protected/tested animals): 8/8
Rats [2]; i.p., 200 mg/kg, given at time 0.5 h
  Results (protected/tested animals): 1/8
Rats [2]; i.p., 300 mg/kg, given at time 0.5 h
  Results (protected/tested animals): 5/8
Rats [2]; i.p., 400 mg/kg, given at time 0.5 h
  Results (protected/tested animals): 7/8
Rats [2]; i.p., given at time 0.5 h
  ED50, pilocarpine-induced status epilepticus: 279.45 (212.61–344.62) mg/kg
  ED97, pilocarpine-induced status epilepticus: 498.2 (378.3–1526.9) mg/kg
[3]
  fold induction at 90 min, 0.1 mM: 0.8
  fold induction at 90 min, 0.2 mM: 0.7
  fold induction at 90 min, 0.5 mM: 1
[4]
  fold induction at 90 min, 0.1 mM: 0.7
  fold induction at 90 min, 0.2 mM: 1.3
  fold induction at 90 min, 0.5 mM: 1.1
[5]
  fold induction at 90 min, 0.1 mM: 1
  fold induction at 90 min, 0.2 mM: 0.7
  fold induction at 90 min, 0.5 mM: 0.7
[6]
  mutagenic activity in the Ames MPF assay: did not exhibit mutagenic activity
